{
  "source": "patent US20220400679A1",
  "about": "“COMPOSITION FOR ENHANCING PLANT GROWTH” (CH Biotech R&D Co., Ltd., priority 2021, published 2022)",
  "key": {"[1]": {"test_system": "nitrate reductase (NR) of soybean plants", "experiment": "Example 3 activity of nitrate reductase, soybean", "type": "in vivo", "conditions": "3 days after application, glyphosate vs Control group, FIG. 15", "protocol": "(§1) One seed was seeded in one pot.\n(§2) One (1) ml of potassium phosphate buffer (100 mM, pH7.4) containing 7.5 mM cysteine, 1 mM EDTA, and 1.5% casein was added to the sample, mixed with the sample, and then the mixed sample was centrifuged at 4° C., 13,000 relative centrifugal field (rcf) for 30 minutes. […] The sample was centrifuged at room temperature, 3,000 rcf. The supernatant was transferred to a new tube and mixed with 0.5 mL sulphanilamide (5.8 mM) and 0.5 mL N-(1-naphthyl)ethylenediamine (0.8 mM). The mixture was incubated for 30 minutes. […] KNO2 is used as a NO2^− concentration standard."}, "[2]": {"test_system": "Glyphosate-tolerant corn plants (D40SS48)", "experiment": "Example 3 content of TBARS, corn", "conditions": "3 days after application, glyphosate vs Control group, FIG. 7"}, "[3]": {"test_system": "Glyphosate-tolerant corn plants (D40SS48)", "experiment": "Example 1 synergistic test with glyphosate: shoot dry weight, corn", "type": "in vivo", "conditions": "7 days after application, glyphosate 4.87 g/L vs Control group (p<0.01), FIG. 1A", "protocol": "as §1\n(§3) 2.1 Shoot dry weight: Seven (7) days after the application of reagents, leaves and stems of each plant were dried at 50° C. overnight, and then the dry weight was measured.\n(§4) 2.2 Statistics: Unpaired Student's t-test was applied to assess numerical data statistical significance. Statistical significance was set at p-value less than 0.05."}, "[4]": {"test_system": "glutamine synthetase (GS) of soybean plants", "experiment": "Example 3 activity of glutamine synthetase, soybean", "type": "in vivo", "conditions": "3 days after application, glyphosate vs Control group, FIG. 16", "protocol": "as §1\n(§5) The leaf powder and 1 ml of extraction solution, containing 10 mM Tris-HCl (pH7.6), 1 mM MgCl2, 1 mM EDTA, and 10 mM 2-Mercaptoethanol, were centrifuged at 4° C., 13,000 rcf for 30 minutes. […] The sample was centrifuged at room temperature, 3,000 rcf. Absorbance at an O.D. of 540 nm (A540) of the supernatant was measured."}, "[5]": {"test_system": "Glyphosate-tolerant soybean plants (S29RY05)", "experiment": "Example 3 analyses of leaves and roots (growth) after glyphosate treatment, soybean", "type": "in vivo", "conditions": "7 days after application, glyphosate 4.87 g/L", "protocol": "as §1\n(§6) 2.1 Analyses of Leaves: Seven (7) days after the application of reagents, plant height was measured, and leaves were collected. The leaf area of the fourth leaf of each corn plant and the total leaf area of each soybean plant were measured by a leaf analyzer (WinFOLIA™ Regent Instruments Inc., Québec, Canada). Leaves and stems of each plant were dried at 50° C. overnight, and then the dry weight was measured.\n(§7) 2.2 Analyses of Roots: Seven (7) days after the application of reagents, length of plant root was measured by a root analyzer (WinRHIZO™, Regent Instruments Inc., Québec, Canada). In addition, roots of each plant were dried at 50° C. overnight, and then the dry weight was measured."}, "[6]": {"test_system": "Glyphosate-tolerant corn plants (D40SS48)", "experiment": "Example 3 content of plant hormones, corn", "type": "in vivo", "conditions": "with glyphosate treatment (4.87 g/L), 12 days after application, N = 3", "protocol": "as §1\n(§8) 2.8 Content of Plant Hormones: Twelve (12) days after the application of reagents, 1 g of fresh sample leaf was ground in liquid nitrogen and then mixed with 10 g extraction solution (80% (v/v) methanol, 1% (v/v) acetic acid) by a vortex mixer. The sample was then sonicated for 1 hour and centrifuged at 2,500 rpm for 10 minutes. The supernatant was collected, concentrated, dissolved in 1 ml of 100% methanol, and then analyzed for content of plant hormones with a tandem quadrupole mass spectrometer (Waters® Xevo® TQ MS, Waters Corporation, Milford, Mass., USA) and ACQUITY UPLC System (Waters Corporation, Milford, Mass., USA)."}, "[7]": {"test_system": "Glyphosate-tolerant soybean plants (S29RY05)", "experiment": "Example 3 electrolyte leakage, soybean", "type": "in vivo", "conditions": "3 days after application, glyphosate vs Control group, FIG. 13", "protocol": "as §1\n(§9) Six (6) leaf disks (7.5 mm diameter) were cut from the sample leaves and immersed in 10 ml of deionized water at 25° C. for 24 hours. After that, the first electrolytic conductivity (EC1) of the sample solution was analyzed with an electrical conductivity meter (SevenCompact™ 5230 Conductivity Meter, Mettler-Toledo, Columbus, Ohio, USA). The sample leaf disks were then kept in the deionized water at 95° C. for 2 hours. After the temperature of the sample solution decreased to 25° C., the second electrolytic conductivity (EC2) of the sample solution was analyzed with the electrical conductivity meter again. Ten (10) milliliters of deionized water without any sample were used as control. Electrolyte leakage of the sample leaves was analyzed with the following equation.\n(§10) Electrolyte leakage (%)=(Sample EC1−Control EC1)×100/(Sample EC2−Control EC2)"}, "[8]": {"test_system": "nitrate reductase (NR) of corn plants", "experiment": "Example 3 activity of nitrate reductase, corn", "type": "in vivo", "conditions": "3 days after application, glyphosate vs Control group, FIG. 8", "protocol": "as §1, §2"}, "[9]": {"test_system": "glutamate synthase (GOGAT) of soybean plants", "experiment": "Example 3 activity of glutamate synthase, soybean", "type": "in vivo", "conditions": "3 days after application, glyphosate vs Control group, FIG. 17", "protocol": "as §1\n(§11) The leaf powder and 1 ml of extraction solution, containing 10 mM Tris-HCl (pH7.6), 1 mM MgCl2, 1 mM EDTA, and 10 mM 2-Mercaptoethanol, were centrifuged at 4° C., 13,000 rcf for 30 minutes. Zero-point-one-five (0.15) ml of the supernatant was mixed with the reaction solution containing 0.2 mL of 20 mM L-glutamine, 0.25 mL of 2 mM 2-oxoglutarate, 0.05 mL of 10 mM KCl, 1 mL of 25 mM Tris-HCl (pH7.6), and 0.1 mL 3 mM NADH to initiate the reaction. The GOGAT activity is determined by NADH reduction through measuring fluorescence intensity at excitation/emission wavelengths of 340/445 nm. NADH concentration is determined by reference to a NADH standard curve."}, "[10]": {"test_system": "glutamate synthase (GOGAT) of corn plants", "experiment": "Example 3 activity of glutamate synthase, corn", "type": "in vivo", "conditions": "3 days after application, glyphosate vs Control group, FIG. 10", "protocol": "as §1, §11"}, "[11]": {"test_system": "Glyphosate-tolerant soybean plants (S29RY05)", "experiment": "Example 1 synergistic test with glyphosate: shoot dry weight, soybean", "type": "in vivo", "conditions": "7 days after application, glyphosate 4.87 g/L vs Control group (p<0.01), FIG. 2A", "protocol": "as §1, §3, §4"}, "[12]": {"test_system": "Glyphosate-tolerant corn plants (D40SS48)", "experiment": "Example 3 electrolyte leakage, corn", "type": "in vivo", "conditions": "3 days after application, glyphosate vs Control group, FIG. 6", "protocol": "as §1, §9, §10"}, "[13]": {"test_system": "Glyphosate-tolerant corn plants (D40SS48)", "experiment": "Example 3 analyses of leaves and roots (growth) after glyphosate treatment, corn", "type": "in vivo", "conditions": "7 days after application, glyphosate 4.87 g/L, N = 10", "protocol": "as §1, §6, §7"}, "[14]": {"test_system": "Glyphosate-tolerant corn plants (D40SS48)", "experiment": "Example 2 different concentrations of components with glyphosate: shoot dry weight, corn", "type": "in vivo", "conditions": "glyphosate 4.87 g/L vs Control group (p<0.01), FIG. 3A", "protocol": "as §3, §1\n(§12) Methods for analyzing shoot dry weight and statistics are the same as described in Example 1."}, "[15]": {"test_system": "Glyphosate-tolerant soybean plants (S29RY05)", "experiment": "Example 3 content of TBARS, soybean", "conditions": "3 days after application, glyphosate vs Control group, FIG. 14"}, "[16]": {"test_system": "Glyphosate-tolerant soybean plants (S29RY05)", "experiment": "Example 3 content of plant hormones, soybean", "type": "in vivo", "conditions": "with glyphosate treatment (4.87 g/L), 12 days after application, N = 3", "protocol": "as §1, §8"}, "[17]": {"test_system": "Glyphosate-tolerant soybean plants (S29RY05)", "experiment": "Example 2 different concentrations of components with glyphosate: shoot dry weight, soybean", "type": "in vivo", "conditions": "glyphosate 4.87 g/L vs Control group (p<0.01), FIG. 4A", "protocol": "as §3, §1, §12"}, "[18]": {"test_system": "glutamine synthetase (GS) of corn plants", "experiment": "Example 3 activity of glutamine synthetase, corn", "type": "in vivo", "conditions": "3 days after application, glyphosate vs Control group, FIG. 9", "protocol": "as §1, §5"}},
  "data": [
    {"smiles": "O=C(O)CNCP(=O)(O)O", "note": "[Glyphosate only, glyphosate]", "values": [
      {"measurement": "activities of nitrate reductase (NR)", "setting": "[1]", "result": "decrease in activities"},
      {"measurement": "TBARS level", "setting": "[2]", "result": "increase in TBARS level"},
      {"measurement": "shoot dry weight", "setting": "[3]", "result": "significant decrease in shoot dry weight"},
      {"measurement": "activities of glutamine synthetase (GS)", "setting": "[4]", "result": "decrease in activities"},
      {"measurement": "leaf curling symptoms (phenotype observation of soybean leaves)", "setting": "[5]; FIG. 12", "result": "causes leaf curling symptoms"},
      {"measurement": "necrotic areas (phenotype observation of soybean leaves)", "setting": "[5]; FIG. 12", "result": "necrotic areas"},
      {"measurement": "Root dry weight", "setting": "[5]; N = 10", "result": 0.28, "unit": "g"},
      {"measurement": "Shoot fresh weight", "setting": "[5]; N = 10", "result": 2.46, "unit": "g"},
      {"measurement": "The unifoliate leaf length", "setting": "[5]; N = 10", "result": 4.54, "unit": "cm"},
      {"measurement": "Total leaf area", "setting": "[5]; N = 10", "result": 55.96, "unit": "cm^2"},
      {"measurement": "Total root length", "setting": "[5]; N = 10", "result": 2047.40, "unit": "cm"},
      {"measurement": "Phytohormone content: ABA", "setting": "[6]", "result": 2742, "unit": "ng/g FW"},
      {"measurement": "Phytohormone content: Cytokinin (Zeatin+iPAs)", "setting": "[6]", "result": 0.75, "unit": "ng/g FW"},
      {"measurement": "Phytohormone content: GA1", "setting": "[6]", "result": 625, "unit": "ng/g FW"},
      {"measurement": "Phytohormone content: IAA", "setting": "[6]", "result": 45, "unit": "ng/g FW"},
      {"measurement": "electrolyte leakage", "setting": "[7]", "result": "increase in electrolyte leakage"},
      {"measurement": "activities of nitrate reductase (NR)", "setting": "[8]", "result": "decrease in activities"},
      {"measurement": "activities of glutamate synthase (GOGAT)", "setting": "[9]", "result": "decrease in activities"},
      {"measurement": "activities of glutamate synthase (GOGAT)", "setting": "[10]", "result": "decrease in activities"},
      {"measurement": "shoot dry weight", "setting": "[11]", "result": "significant decrease in shoot dry weight"},
      {"measurement": "electrolyte leakage", "setting": "[12]", "result": "increase in electrolyte leakage"},
      {"measurement": "Plant height", "setting": "[13]", "result": 42.70, "unit": "cm"},
      {"measurement": "Root dry weight", "setting": "[13]", "result": 0.35, "unit": "g"},
      {"measurement": "The 4th leaf area", "setting": "[13]", "result": 89.45, "unit": "cm^2"},
      {"measurement": "Total root length", "setting": "[13]", "result": 1405.69, "unit": "cm"},
      {"measurement": "shoot dry weight", "setting": "[13]", "result": 1.30, "unit": "g"},
      {"measurement": "shoot dry weight", "setting": "[14]", "result": "significant decrease in shoot dry weight"},
      {"measurement": "TBARS level", "setting": "[15]", "result": "increase in TBARS level"},
      {"measurement": "Phytohormone content: ABA", "setting": "[16]", "result": 1189, "unit": "ng/g FW"},
      {"measurement": "Phytohormone content: Cytokinin (Zeatin+iPAs)", "setting": "[16]", "result": 0.68, "unit": "ng/g FW"},
      {"measurement": "Phytohormone content: GA1", "setting": "[16]", "result": 832, "unit": "ng/g FW"},
      {"measurement": "Phytohormone content: IAA", "setting": "[16]", "result": 28, "unit": "ng/g FW"},
      {"measurement": "shoot dry weight", "setting": "[17]", "result": "significant decrease in shoot dry weight"},
      {"measurement": "activities of glutamine synthetase (GS)", "setting": "[18]", "result": "decrease in activities"}
    ]}
  ]
}
